According to patent US5238936A, “Trisubstituted triazines” (Adir et Compagnie, priority 1991, dated 1993):

Experiments:
Plasmodium falciparum = conditions: resistance to chloroquine; cited from earlier work
resistant line P/388/VCR = experiment: Antitumour activity in vivo: increase in antitumour activity of vincristine on murine leukaemia P 388/VCR; set-up: species or system murine; female B6D2Fl mice; conditions: with vincristine […] i.p., no compound: 146 ± 2
Description: This study was completed by an in vivo study, using a murine leukaemia resistant to vincristine (P/388/VCR) and using the compounds in association with vincristine.
The sensitive parent line P 388 (murine leukaemia) and the sub-line resistant to vincristine, P 388/VCR, were supplied by NCI (Frederick, USA). The tumour cells (10^6 cells) were inoculated on day 0 into the intraperitoneal cavity of female B6D2Fl mice (Iffa Credo, France) weighing from 18 to 20 g (groups of 8 to 10 animals).
Every day for 4 days, starting from day 1, the animals received: […]
30 to 60 minutes later, an administration by the i.p. route of 0.25 mg/kg of vincristine (used as a reference antitumour agent).
The tumour activity is expressed as follows: [formula]
The values are mean values obtained in independent experiments (± sem when n is greater than or equal to 3).

line DC-3F/AD [1] = experiment: Flow cytometry: intracellular accumulation of adriamycin by cells of the line DC-3F/AD; assay type: cell-based, Chinese hamster; conditions: ADR 50 μM, 5 hours
Description: Also measured was the effect of the compounds on the intracellular concentration of the cytotoxic agent. In effect, the known compounds for reversing MDR act by increasing the intracellular concentration of cytotoxic agent. This effect is the consequence of inhibiting the action of gP 170 which is responsible for the efflux of the drug.
By measuring that fluorescence, it is thus possible to obtain a relative measurement of the intracellular concentration of ADR.
The cells 500×10^3 per ml were exposed simultaneously to ADR at a fixed concentration (50 μM) and to the tested compounds at various concentrations. After 5 hours' incubation, the intracellular accumulation of ADR was evaluated by FCM. […] The analysis of each of the samples was carried out on a total of 10,000 cells at a rate of 1,000 cells per second.
The results were presented in the form of linear histograms of the intracellular ADR fluorescence.
Expression of the results: for each of the histograms the mean fluorescence per channel (MEAN) was determined by the information system of the apparatus. For all experiments:
a negative control (cells without ADR) fixed the autofluorescence threshold.
a positive control (cells with ADR) determined the MEAN value=MN1.
the "test" tubes (cells with ADR and with compound) were used to determine, for each of the compounds and at each of the concentrations, the MEAN values=MN2.
The results are expressed in the form of variations from the mean fluorescence obtained for each of the "test" tubes (MN2) in relation to the mean fluorescence obtained with the positive control (MNl): VAR-MEAN=MN2-MN1. The parameter expressed is thus the increase in ADR fluorescence in the presence of the tested compounds.

line DC-3F/AD [2] = experiment: Cytotoxicity (Microculture Tetrazolium Assay): reversal of resistance to actinomycin D, line DC-3F/AD; assay type: cell-based, Chinese hamster; conditions: 4 days
Description: The pharmacological study of the compounds of the present invention consisted first of all in an evaluation in vitro carried out on resistant cells. The parameter measured is the cytotoxicity of the antitumour drug, quantified in the absence and in the presence of the reversing compound.
The cells are distributed on microplates and exposed to the cytotoxic compounds (actinomycin D for line DC-3F/AD and adriamycin for line KB-Al) at 9 concentrations (2 by 2 series dilutions). The compounds tested for their capacity to reverse MDR are added at the same time as the cytotoxic agent.
The cells are then incubated for 4 days. […] The results are expressed as a reversion factor (RF): PG,29 [formula]

[3] = 50 mg/kg i.p. daily for 4 days, ± sem
[4] = 100 mg/kg i.p. daily for 4 days, ± sem

SMILES | sensitivity of a chloroquine-resistant line (Plasmodium falciparum) | T/C % (resistant line P/388/VCR; [3]) [%] | T/C % (resistant line P/388/VCR; 75 mg/kg i.p. daily for 4 days) [%] | VAR-MEAN (increase in ADR fluorescence), line DC-3F/AD (line DC-3F/AD [1]; 1.0 μM compound) | VAR-MEAN (increase in ADR fluorescence), line DC-3F/AD (line DC-3F/AD [1]; 5.0 μM compound) | VAR-MEAN (increase in ADR fluorescence), line DC-3F/AD (line DC-3F/AD [1]; 10 μM compound) | VAR-MEAN (increase in ADR fluorescence), line DC-3F/AD (line DC-3F/AD [1]; […] compound) | T/C % (resistant line P/388/VCR; [4]) [%] | Reversion factors (cytotoxicity) with the line DC-3F/AD (line DC-3F/AD [2]; 1 μM compound) | Reversion factors (cytotoxicity) with the line DC-3F/AD (line DC-3F/AD [2]; 5 μM compound) | Reversion factors (cytotoxicity) with the line DC-3F/AD (line DC-3F/AD [2]; 0.5 μM compound)
COc1ccc(CCN(C)CCCC(C#N)(c2ccc(OC)c(OC)c2)C(C)C)cc1OC (stereo not drawn) [verapamil, reference compound] | restores the sensitivity of a resistant line | 164 | 177 | 2.1 | 5.6 | 8.9 | 4.0 |  |  |  | 
C=CCNc1nc(NC)nc(N2CCC(NCC3c4ccccc4COc4ccccc43)CC2)n1 (racemic) [Example 28, 2-allylamino-4-methylamino-6-{4-[((R,S)-6,11-dihydro-dibenzo[b,e]oxepin-11-yl)methylamino]piperidin-1-yl}-1,3,5-triazine] |  | 170 |  | 4.3 | 16.8 | 21.5 | 12.8 | 171 | 18.1 | 600.4 | 
C=CCNc1nc(NCC=C)nc(N2CCC(NCC3c4ccccc4CCCc4ccccc43)CC2)n1 [Example 20, 2,4-diallylamino-6-{4-[(5,6,7,12-tetrahydrodibenzo[a,d]cycloocten-12-yl)methylamino]piperidin-1-yl}-1,3,5-triazine] |  | 161 |  | 8.2 | 22.3 | 21.6 | 19.7 | 174 | 52 | 2951 | 3.4
C=CCNc1nc(NCC=C)nc(N2CCC(NCC3c4ccccc4N(C)S(=O)(=O)c4cc(Cl)ccc43)CC2)n1 (racemic) [Example 21, 2,4-diallylamino-6-{4-[(8-chloro-10,10-dioxo-11-methyl-(R,S)-dibenzo[c,f]thiazepin-5-yl)methylamino]piperidin-1-yl}-1,3,5-triazine] |  | 154 |  | 8.1 | 22.8 | 24.1 | 21.1 | 148 | 18 | 2804 | 1.2
C=CCNc1nc(NCC=C)nc(N2CCC(NCC3c4ccccc4CCc4ccccc43)CC2)n1 [Example 3, 2,4-Diallylamino-6-{4-[(10,11-dihydro-5H-dibenzo[a,d]cyclohepten-5-yl)methylamino]piperidin-1-yl}-1,3,5-triazine] |  | 208 ± 23 |  | 20.2 | 28.3 | 29.6 | 25.8 | 193 ± 3 | 236 | 3187 | 43
C=CCNc1nc(NCC)nc(N2CCC(NCC3c4ccccc4COc4ccccc43)CC2)n1 (racemic) [Example 29, 2-allylamino-4-ethylamino-6-{4-[((R,S)-6,11-dihydrodibenzo[b,e]oxepin-11-yl)methylamino]piperidin-1-yl}-1,3,5-triazine] |  | 171 ± 6 |  | 6.4 | 18.0 | 21.8 | 13.3 | 185 ± 7 | 33.8 | 1327.5 | 1.7
C=CCNc1nc(NCCC)nc(N2CCC(NCC3c4ccccc4CCc4ccccc43)CC2)n1 [Example 5, 2-allylamino-4-propylamino-6-{4-[(10,11-dihydro-5H-dibenzo[a,d]cyclohepten-5-yl)methylamino]piperidin-1-yl}-1,3,5-triazine] |  | 184 |  | 17.9 | 27.3 | 24.9 | 23.5 | 195 | 81 | 2753 | 3.8
